From patent publication US7626042B2, “O-substituted hydroxyaryl derivatives” (Institute of Medicinal Molecular Design, Inc., priority 2002, dated 2009)
Where a name gives a salt, the structure may show the parent alone.

System: NF-κB activation
Assay: Inhibitory activity against NF-κB activation, luciferase reporter assay under TNF-α stimulation
Format: cell-based, human
Conditions: HepG2 cells, TNF-α 40 ng/ml, 4 hours; for inhibition at 1 µg/mL / inhibition at 10 µg/mL: Homo sapiens, read-out: Inhibitory Ratio of NF-κ B Activation(%)
Protocol: Inhibitory activity against NF-κB activation was measured by referring to the method of Hill et al. (Cell, (USA), in 1993, Vol. 73, No. 2, p. 395-406). Using a transfection reagent(Effectene; QIAGEN), the human hepatoma cell strain HepG2 was transfected with a plasmid (pNFκ Luc Reporter Plasmid; STRATAGENE) integrated with an oligonucleotide having five tandem copies of NF-κB binding sequences(TGGGGACTTTCCGC) on a upstream region of firefly luciferase gene (Luc) according to the QIAGEN's protocol, and the cells were incubated for 6 to 24 hours. Then the cells were cultured for 4 hours after the addition of TNF-α (40 ng/ml) in the presence of a test compound, and intracellular luciferase activity was measured by using PicaGene LT (TOYO INK MFG Co., Ltd.) and a chemical luminescence measurement apparatus(SPECTRAFluor Plus; TECAN). The inhibitory ratio was measured as a ratio relative to a value of the luciferase activity in the absence of the test compound.

Structure (SMILES) | inhibition at 1 µg/mL (Drug Concentration 1 μg/mL) [%] | inhibition at 10 µg/mL (Drug Concentration 10 μg/mL) [%] | Inhibitory Ratio of NF-κ B Activation(%) (Drug Concentration 1 μg/mL) | Inhibitory Ratio of NF-κ B Activation(%) (Drug Concentration 10 μg/mL)
O=C(Nc1cc(C(F)(F)F)cc(C(F)(F)F)c1)c1cc(Cl)ccc1OP(=O)(O)O [Compound 51, 5-chloro-2-phosphonooxy-N-[3,5-bis(trifluoromethyl)phenyl]benzamide] | 89.7 | 96.6 |  | 
CCOC(=O)CN(CC(=O)OCC)C(=O)Oc1ccc(Cl)cc1C(=O)Nc1cc(C(F)(F)F)cc(C(F)(F)F)c1 [Compound 75, 2-{N,N-bis[(ethoxycarbonyl)methyl]carbamoyl}oxy-5-chloro-N-[3,5-bis(trifluoromethyl)phenyl]benzamide] | 94.3 | 94.9 |  | 
O=C(Nc1cc(C(F)(F)F)cc(C(F)(F)F)c1)c1cc(Cl)ccc1OCCO [Compound 107] |  |  | 47.4 | 52.1
CC(C)C[C@H](NC(=O)[C@H](Cc1ccccc1)NC(=O)OC(C)(C)C)C(=O)Oc1ccc(Cl)cc1C(=O)Nc1cc(C(F)(F)F)cc(C(F)(F)F)c1 [Compound 35, 2-{N-[N-(tert-butoxycarbonyl)-L-phenylalanyl]-L-leucyl}oxy-5-chloro-N-[3,5-bis(trifluoromethyl)phenyl]benzamide] | 96.9 | 98.3 |  | 
O=C(Nc1cc(C(F)(F)F)cc(C(F)(F)F)c1)c1cc(Cl)ccc1OC(=O)N1CCOCC1 [Compound 71] |  |  | 70.6 | 78.0
O=C(O)CN(CC(=O)O)C(=O)Oc1ccc(Cl)cc1C(=O)Nc1cc(C(F)(F)F)cc(C(F)(F)F)c1 [Compound 76] |  |  | 98.9 | 98.2
O=C(Nc1cc(C(F)(F)F)ccc1C(F)(F)F)c1cc(Br)cc(Br)c1OC(=O)N1CCOCC1 [Compound 130, 3,5-Dibromo-2-(morpholinocarbonyl)oxy-N-[2,5-bis(trifluoromethyl)phenyl]-benzamide] | 18.9 |  |  | 
O=C(Nc1cc(C(F)(F)F)cc(C(F)(F)F)c1)c1cc(-c2ccccc2)ccc1OC(=O)N1CCOCC1 [Compound 81, 2-(Morpholinocarbonyl)oxy-5-phenyl-N-[3,5-bis(trifluoromethyl)phenyl]benzamide] | 26.4 | 29.2 |  | 
CCC(C)(C)c1ccc(Oc2ccccc2)c(-n2c(=O)oc3ccc(Cl)cc3c2=O)c1 [Compound 118, 6-Chloro-3-[5-(1,1-dimethyl)propyl-2-phenoxyphenyl]-3,4-dihydro-2H-1,3-benzoxazine-2,4-dione] | 94 | 97.4 |  | 
CC(C)(C)OC(=O)CC[C@H](NC(=O)OC(C)(C)C)C(=O)Oc1ccc(Cl)cc1C(=O)Nc1cc(C(F)(F)F)cc(C(F)(F)F)c1 [Compound 31, 2-[N-(tert-butoxycarbonyl)-γ-O-(tert-butyl)-α-L-glutamyl]oxy-5-chloro-N-[3,5-bis(trifluoromethyl)phenyl]benzamide] |  |  | 97.2 | 97.2
COC(=O)[C@H](COC(C)(C)C)NC(=O)Oc1ccc(Cl)cc1C(=O)Nc1cc(C(F)(F)F)cc(C(F)(F)F)c1 [Compound 60] |  |  | 97.7 | 98.9
O=C(Nc1cc(C(F)(F)F)ccc1Cl)c1cc(Br)ccc1OP(=O)([O-])O.[Na+] [Compound 136] |  |  | >99.9 | 
O=C(Nc1ccc(-c2ccccc2)cc1)c1cc(C(F)(F)F)ccc1OC(=O)N1CCOCC1 [Compound 119] |  |  | >99.9 | >99.9
COc1ccc(Cl)cc1C(=O)Nc1cc(C(F)(F)F)cc(C(F)(F)F)c1 [Compound 93] |  |  | 44.3 | 24.0
O=C(NCc1ccccc1)Oc1ccc(Cl)cc1C(=O)Nc1cc(C(F)(F)F)cc(C(F)(F)F)c1 [Compound 55] |  |  | 97.1 | 99.1
CC(C)(C)c1cc(NC(=O)c2cc(Br)ccc2OP(=O)([O-])O)cc(C(C)(C)C)c1.[Na+] [Compound 145] |  |  | 93.1 | 
O=C(O)C[C@H](NC(=O)CNC(=O)Oc1ccc(Cl)cc1C(=O)Nc1cc(C(F)(F)F)cc(C(F)(F)F)c1)C(=O)O [Compound 64] |  |  | 96.3 | 97.5
CC(C)(C)OC(=O)NCC(=O)Oc1ccc(Cl)cc1C(=O)Nc1cc(C(F)(F)F)cc(C(F)(F)F)c1 [Compound 22, 2-[N-(tert-butoxycarbonyl)glycyl]oxy-5-chloro-N-[3,5-bis(trifluoromethyl)phenyl]-benzamide] | 35.3 | 98.7 |  | 

Structure (SMILES) | inhibition at 1 µg/mL (Drug Concentration 1 μg/mL) [%] | inhibition at 10 µg/mL (Drug Concentration 10 μg/mL) [%] | Inhibitory Ratio of NF-κ B Activation(%) (Drug Concentration 1 μg/mL) | Inhibitory Ratio of NF-κ B Activation(%) (Drug Concentration 10 μg/mL)
O=C(O)COc1ccc(Cl)cc1C(=O)Nc1cc(C(F)(F)F)cc(C(F)(F)F)c1 [Compound 109] |  |  | 21.0 | 95.9
O=C(COc1ccccc1)Oc1ccc(Cl)cc1C(=O)Nc1cc(C(F)(F)F)cc(C(F)(F)F)c1 [Compound 12] |  |  | 95.5 | 97.5
CC(C)C[C@H](N)C(=O)Oc1ccc(Cl)cc1C(=O)Nc1cc(C(F)(F)F)cc(C(F)(F)F)c1.Cl [Compound 27] |  |  | 95.8 | 99.2
O=C(Nc1cc(C(F)(F)F)ccc1Cl)c1cc(Cl)ccc1OP(=O)([O-])O.[Na+] [Compound 125] |  |  | >99.9 | >99.9
CC(C)(C)OC(=O)C[C@H](NC(=O)OC(C)(C)C)C(=O)Oc1ccc(Cl)cc1C(=O)Nc1cc(C(F)(F)F)cc(C(F)(F)F)c1 [Compound 30] |  |  | 96.4 | 97.0
CCOC(=O)CNC(=O)Oc1ccc(Cl)cc1C(=O)Nc1cc(C(F)(F)F)cc(C(F)(F)F)c1 [Compound 56, 5-chloro-2-{N-[(ethoxycarbonyl)methyl]carbamoyl}oxy-N-[3,5-bis(trifluoromethyl)-phenyl]benzamide] | 96.8 | 98.9 |  | 
N[C@@H](CC(=O)O)C(=O)N[C@@H](Cc1ccccc1)C(=O)Oc1ccc(Cl)cc1C(=O)Nc1cc(C(F)(F)F)cc(C(F)(F)F)c1 [Compound 42, 2-[N-(α-L-aspartyl)-L-phenylalanyl]oxy-5-chloro-N-[3,5-bis(trifluoromethyl)-phenyl]benzamide hydrochloride] | 92.7 | 96.9 |  | 
COC(=O)C1Oc2ccc(Cl)cc2C(=O)N1c1cc(C(F)(F)F)cc(C(F)(F)F)c1 (stereo not drawn) [Compound 115, 6-chloro-3,4-dihydro-4-oxo-3-[3,5-bis(trifluoromethyl)phenyl]-2H-1,3-benzoxazine-2-carboxylic acid methyl ester] | 41.8 | 92.2 |  | 
O=C(CNC(=O)Oc1ccc(Cl)cc1C(=O)Nc1cc(C(F)(F)F)cc(C(F)(F)F)c1)N[C@@H](Cc1ccccc1)C(=O)O [Compound 62] |  |  | 96.8 | 97.8
O=C(COc1cccc(Cl)c1Cl)Oc1ccc(Cl)cc1C(=O)Nc1cc(C(F)(F)F)cc(C(F)(F)F)c1 [Compound 14] |  |  | 98.9 | 99.4
COc1ccc(C(C)(C)C)cc1C(=O)Nc1cc(C(F)(F)F)cc(C(F)(F)F)c1 [Compound 94] |  |  | 56.1 | 51.7
COc1cc(NC(=O)c2cc(Br)ccc2OC(=O)N2CCOCC2)cc(C(F)(F)F)c1 [Compound 87, 5-Bromo-N-[3-methoxy-5-(trifluoromethyl)phenyl]-2-[(morpholinocarbonyl)oxy]-benzamide] | 29.7 | 55.4 |  | 
O=C(Oc1ccc(Cl)cc1C(=O)Nc1cc(C(F)(F)F)cc(C(F)(F)F)c1)c1cccnc1 [Compound 6] |  |  | 94.4 | 98.1
COC(=O)Oc1ccc(Cl)cc1C(=O)Nc1cc(C(F)(F)F)cc(C(F)(F)F)c1 [Compound 43, 5-Chloro-2-(methoxycarbonyl)oxy-N-[3,5-bis(trifluoromethyl)phenyl]benzamide] | 94.9 | 97.6 |  | 
O=C(CCC(=O)N1CCCCC1)Oc1ccc(Cl)cc1C(=O)Nc1cc(C(F)(F)F)cc(C(F)(F)F)c1 [Compound 19] |  |  | 97.9 | 98.8
CC(C)S(=O)(=O)Oc1ccc(Cl)cc1C(=O)Nc1cc(C(F)(F)F)cc(C(F)(F)F)c1 [Compound 46] |  |  | 89.5 | 96.3
O=C(Nc1cc(C(F)(F)F)cc(C(F)(F)F)c1)c1cc(C(F)(F)F)ccc1OC(=O)N1CCOCC1 [Compound 79, 2-(Morpholinocarbonyl)oxy-5-trifluoromethyl-N-[3,5-bis(trifluoromethyl)phenyl]-benzamide] | 88.1 | 70.2 |  | 
CC(C)(C)OC(=O)NCCCC[C@H](NC(=O)OC(C)(C)C)C(=O)Oc1ccc(Cl)cc1C(=O)Nc1cc(C(F)(F)F)cc(C(F)(F)F)c1 [Compound 33, 5-chloro-2-[N^α,N^ε-di(tert-butoxycarbonyl)-L-lysyl]oxy-N-[3,5-bis(trifluoromethyl)phenyl]benzamide] | 96.6 | 98.6 |  | 
